Data taken from ChEMBL document CHEMBL1146025, “Design, microwave-assisted synthesis, and spasmolytic activity of 2-(alkyloxyaryl)-1H-benzimidazole derivatives as constrained stilbene bioisosteres” (Bioorg Med Chem Lett, 2006).

How the values were obtained:
Rattus norvegicus [1] = species: Rattus norvegicus; test: Spasmolytic activity in Wistar rat ileum; type: functional
Rattus norvegicus [2] = species: Rattus norvegicus; test: Potency index, spasmolytic activity in Wistar rat ileum relative to gigantol; type: functional

| IC50 (Rattus norvegicus [1]) | SMILES | Emax (Rattus norvegicus [1]) | Ratio IC50 (Rattus norvegicus [2]) |
| --- | --- | --- | --- |
| 5.15 µM | Oc1ccccc1-c1nc2ccccc2[nH]1 | 42.4% | 1.13 |
| 1.19 µM | COc1cc(-c2nc3ccccc3[nH]2)ccc1O | 70% | 4.9 |
| 1.9 µM | CCCOc1ccccc1-c1nc2ccccc2[nH]1 | 80% | 3.06 |
| 78.6 µM | O=[N+]([O-])c1ccccc1-c1nc2ccccc2[nH]1 | 11.1% | 0.07 |
| 1.94 µM | CCOc1ccccc1-c1nc2ccccc2[nH]1 | 50% | 3 |
| 7.7 µM | COc1ccccc1-c1nc2ccccc2[nH]1 | 52.8% | 0.75 |

More lines, now with the values behind:

| SMILES | IC50 (Rattus norvegicus [1]) | Emax (Rattus norvegicus [1]) | Ratio IC50 (Rattus norvegicus [2]) |
| --- | --- | --- | --- |
| CN(C)c1ccc(-c2nc3ccccc3[nH]2)cc1 | 30 µM | 34.9% | 0.19 |
| c1ccc2[nH]c(-c3ccncc3)nc2c1 | 190 µM | 50% | 0.03 |
| COc1ccc(-c2nc3ccccc3[nH]2)cc1OC | 5.6 µM | 55% | 1.04 |
| c1ccc(COc2ccccc2-c2nc3ccccc3[nH]2)cc1 | 28.2 µM | 51.4% | 0.21 |
| COc1ccc(-c2nc3ccccc3[nH]2)c(OC)c1OC | 1.8 µM | 65% | 3.23 |
| COc1ccc(Cc2nccc3cc(OC)c(OC)cc23)cc1OC [PAPAVERINE] |  | 96.7% | 3.76 |
| CCOc1ccccc1-c1nc2ccccc2n1CC | 1.72 µM | 60% | 3.39 |
| c1ccc2[nH]c(-c3ccc4c(c3)OCO4)nc2c1 | 3.4 µM | 59% | 1.71 |
| COc1cc(OC)c(-c2nc3ccccc3[nH]2)cc1OC | 4 µM | 90% | 1.45 |
| Cc1ccc(COc2ccccc2-c2nc3ccccc3[nH]2)cc1 | 15 µM | 47.7% | 0.38 |
| Oc1ccc(-c2nc3ccccc3[nH]2)cc1 | 5.25 µM | 61.2% | 1.11 |
| COc1ccc(-c2nc3ccccc3[nH]2)cc1 | 10.6 µM | 54.9% | 0.55 |
| Clc1ccc(COc2ccccc2-c2nc3ccccc3[nH]2)cc1 | 59 µM | 38.2% | 0.09 |
